Assay results from EP1078630A1, “Use of sigma receptor agonists for the treatment of depression” (WARNER-LAMBERT COMPANY, priority 1999, dated 2001).

Tests used:
[1] = system: Male Swiss OF1 mice; experiment: Forced swim test in non-operated Swiss mice (duration of immobility); assay type: in vivo
Protocol: (§1) Male Swiss OF1 mice (Breeding center of the Faculty of Pharmacy, Montpellier, France), aged 5-6 weeks and weighing 30 ± 2 g are used throughout the study. Animals are housed in plastic cages in groups. They have free access to laboratory chow and water, except during behavioral experiments, and they are kept in a regulated environment (23 ± 1°C, 40-60% humidity) under a 12-hr light/dark cycle (light on at 7:00 a.m.). Experiments are carried out between 9:00 a.m. and 6:00 p.m., in a soundproof and air-regulated experimental room, to which mice are habituated at least 30 min before each experiment.
(§2) PROG and finasteride are suspended in sesame oil; other drugs are solubilized in distilled water or saline solution. Drugs are injected subcutaneously (s.c.) or intraperitoneally (i.p.), in a volume of 100 µl per 20 g of body weight.
(§3) Each mouse is placed individually in a glass cylinder (diameter 12 cm, height 24 cm) filled with water at a height of 12 cm. Water temperature is maintained at 22-23°C. The animal is forced to swim for 15 min on the first day. Animals are then allowed to return to their home cage. On the second day, each mouse is placed again into the water and forced to swim for 6 min. The session is videotaped and the duration of immobility during the last 5 min is measured. The mouse is considered as immobile when it stops struggling and moves only to remain floating in the water, keeping its head above water. Drugs are administered 30 min before the session on the second day. Finasteride is administered twice, 14 and 2 hr before the session on day 2.
(§4) Results are expressed as means ± S.E.M. Data are analyzed using the Dunnett's multiple comparisons test after an analyzis of variance (ANOVA, F values). The criterion for statistical significance is P < 0.05.

[2] = literature (Ukai et al. 1998, Matsuno et al. 1996, Tottori et al. 1997, Kinsora et al. 1998); cited from earlier work
[3] = system: AdX/CX Swiss mice; experiment: Forced swim test in adrenalectomized/castrated (AdX/CX) Swiss mice; assay type: in vivo; conditions: for effect in AdX/CX animals as compared to non-operated mice: comparison of AdX/CX with non-operated animals; for influence of removal of circulating steroids on the antidepressant effect: AdX/CX versus non-operated mice
Protocol: as §1, §2, §3
About one week after habituation to the animal facilities, animals are anaesthetized with sodium pentobarbital 2%, 100 µl/30 g body weight i.p. Both adrenal glands are removed, through incisions in the back of the animal, just below the breast ribs. The skin is sutured. Then, both testes are ligatured and cut, through an incision in the scrotum. Animals received an injection of gentamycine 10 mg/kg i.p. and recovered within few hours from surgery. After surgery, drinking tap water is replaced by saccharose 1%, NaCI 0.9% solution. Animals are used for behavioral experiments six days after surgery.
as §4

For `CC(=O)[C@H]1CC[C@H]2[C@@H]3CCC4=CC(=O)CC[C@]4(C)[C@H]3CC[C@]12C` [PROG, progesterone], the immobility time ([1]; 5-60 mg/kg dose range, given alone, Fig. 3C) was “does not affect the immobility time by itself”, the “antagonism of the DHEAS effect on immobility time” value ([1]; PROG 20-60 mg/kg pre-administered before DHEAS 10 mg/kg, Fig. 3D) was “significant antagonism of its effect” and the “antagonism of the igmesine-induced reduction of immobility” value ([1]; PROG pre-administered i.p. 15 min before igmesine, Fig. 4A) was “fully blocks the igmesine-induced reduction of immobility”.
For `COc1cccc2c1CCC(=O)N2CCCN1CCN(c2cccc(Cl)c2)CC1` [OPC14523], the “antidepressant effects in animal models” value [2] is listed as “reduce the immobility time in the forced swim test or are active in the tail suspension test”.
For `Cc1ccccc1NC(=N)Nc1ccccc1C` [DTG], the “antidepressant effects in animal models” value [2] is listed as “reduce the immobility time in the forced swim test or are active in the tail suspension test”.
For `C=CCN1CCC2(C)c3cc(O)ccc3CC1C2C` (single isomer, unassigned; (+)) [(+)-SKF-10,047], the immobility time ([1]; 30 mg/kg, Fig. 1B) is given as “decreases the immobility time” and the “antidepressant effects in animal models” value [2] is given as “reduce the immobility time in the forced swim test or are active in the tail suspension test”.
With `C[C@]12CC[C@H](OS(=O)(=O)O)CC1=CC[C@@H]1[C@@H]2CC[C@]2(C)C(=O)CC[C@@H]12` [DHEAS] the immobility time ([1]; 10 mg/kg dose (5-60 mg/kg range tested), Fig. 3A) was “slightly but significantly shortens the immobility time”, the immobility time ([1]; dosages lower or higher than 10 mg/kg within 5-60 mg/kg, Fig. 3A) was “devoid of effect” and the immobility time ([3]; AdX/CX animals, 5-60 mg/kg dose-range, Fig. 7) was “significant diminution of the immobility time at all the doses examined”. For the same compound, the “effect in AdX/CX animals as compared to non-operated mice” value [3] was “in a more efficient manner as compared to non-operated animals”.
In the case of `CC(C)(C)NC(=O)[C@H]1CC[C@H]2[C@@H]3CC[C@H]4NC(=O)C=C[C@]4(C)[C@H]3CC[C@]12C` [Finasteride, finasteride], the immobility time ([3]; finasteride pretreatment (25 mg/kg s.c., 14 and 2 hr before session) in vehicle-treated AdX/CX mice, Fig. 5) is reported as “does not affect the immobility time” and the “effect on the diminution of immobility time induced by igmesine” value ([3]; finasteride pretreatment (25 mg/kg s.c., 14 and 2 hr before), igmesine 60 mg/kg, AdX/CX mice, Fig. 5) is reported as “significantly alters the diminution induced by igmesine”.
In the case of `CCCN(CCC)CCc1ccc(OC)c(OCCc2ccccc2)c1` [NE-100], the immobility time ([1]; 1-10 mg/kg i.p. dose-range, given alone, Fig. 1C) is reported as “does not affect the immobility time by itself”, the “antagonism of the reduction of immobility time induced by igmesine” value ([1]; NE-100 10 mg/kg pre-administered i.p. 15 min before igmesine, Fig. 1D) is reported as “completely antagonizes the reduction of immobility time induced by igmesine” and the “antagonism of the DHEAS-induced diminution of immobility time” value ([1]; NE-100 i.p. 15 min before DHEAS, Fig. 4B) is reported as “prevents the DHEAS-induced diminution of immobility time”. The “antagonism of the antidepressant effect of DHEAS” value ([3]; NE-100 i.p. 15 min before DHEAS, AdX/CX mice, Fig. 8B) was “fully antagonizes” and the “antagonism of the antidepressant effect of igmesine” value ([3]; NE-100 i.p. 15 min before igmesine, AdX/CX mice, Fig. 8A) was “fully antagonizes”.
In the case of `CNCCC(Oc1ccc(C(F)(F)F)cc1)c1ccccc1` (stereo not drawn) [fluoxetine], the immobility time ([1]; 30 and 60 mg/kg i.p., Fig. 2) is reported as “shortened the immobility time”, the “antidepressant effect in the forced swim test” value ([3]; AdX/CX Swiss mice, i.p. 30 min before session on day 2, Fig. 6) is reported as “antidepressant effect” and the “influence of removal of circulating steroids on the antidepressant effect” value [3] is reported as “failed to be affected by the removal of circulating steroids”.
In the case of `CC(C)=CCN1CCC2(C)c3cc(O)ccc3CC1C2C` (single isomer, unassigned; (+)) [(+)-pentazocine], the “antidepressant effects in animal models” value [2] is given as “reduce the immobility time in the forced swim test or are active in the tail suspension test”.
For `CC(=O)[C@H]1CC[C@H]2[C@@H]3CC=C4C[C@@H](OS(=O)(=O)O)CC[C@]4(C)[C@H]3CC[C@]12C` [PREGS], the immobility time ([1]; 5-40 mg/kg dose range, Fig. 3B) was “fails to affect the immobility time”.
For `COc1ccc(CCN2CCN(CCCc3ccccc3)CC2)cc1OC` [SA4503], the “antidepressant effects in animal models” value [2] is listed as “reduce the immobility time in the forced swim test or are active in the tail suspension test”.
In the case of `CCC(C/C=C/c1ccccc1)(c1ccccc1)N(C)CC1CC1.Cl` (stereo not drawn) [igmesine, (E)-(+)-N-(cyclopropylmethyl)-α-ethyl-N-methyl-α-(3-phenyl-2-propenyl)benzenemethanamine hydrochloride], the immobility time ([1]; 60 mg/kg i.p., 30 min before session on day 2, Fig. 1A) is reported as “significantly shortens the immobility time”, the immobility time ([3]; AdX/CX animals, 20 and 60 mg/kg, dose-dependent, Fig. 5) is reported as “shortens significantly the immobility time” and the “effect in AdX/CX animals as compared to non-operated mice” value [3] is reported as “enhanced”. For the same compound, the “antidepressant effects in animal models” value [2] was “reduce the immobility time in the forced swim test or are active in the tail suspension test”.
For `CNCCCN1c2ccccc2CCc2ccccc21` [desipramine], the immobility time ([1]; 30 and 60 mg/kg i.p., Fig. 2) was “shortened the immobility time” and the “influence of removal of circulating steroids on the antidepressant effect” value [3] was “failed to be affected by the removal of circulating steroids”.
